In US20240376056A1, “PHENYL ACETAMIDE BASED IL-17A MODULATORS AND USES THEREOF” (DiCE Alpha, Inc., priority 2021, published 2024):

molecular target: T1, IL-17A/A (Homo sapiens, UniProt Q16552); assay: HEK-Blue IL-17A/A inhibition assay (SEAP reporter); assay type: cell-based; settings: HEK-Blue cells (HEK 293 expressing IL-17RA, IL-17RC, Act1); IL-17A/A stimulation; 20 hours; SEAP read at A630; 4-parameter fit
T1 construct: purchased Genscript Z03228
T1 sequence (Q16552 24-155): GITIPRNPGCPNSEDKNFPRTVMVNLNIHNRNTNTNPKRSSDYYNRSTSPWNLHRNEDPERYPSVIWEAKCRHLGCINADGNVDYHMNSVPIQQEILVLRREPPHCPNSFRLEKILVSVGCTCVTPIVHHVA
Procedure, shortened: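 IC50 from a 4-parameter fit of SEAP signal (Quanti-Blue, A630) after 20 h co-incubation of compound and IL-17A/A. Reporter line: HEK 293 expressing IL-17RA, IL-17RC and Act1 with NFκB-SEAP; compound top final 10, 1 or 0.3 uM, DMSO 0.1% final.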

SMILES	IC50
CCn1nccc1C(=O)N[C@H](C(=O)Nc1ccc([C@H](C)C(=O)N(C)CC(F)(F)F)cc1F)C(C1CC1)C1CC1 [Compound 68, N-((S)-1,1-dicyclopropyl-3-((2-fluoro-4-((S)-1-(methyl(2,2,2-trifluoroethyl)amino)-1-oxopropan-2-yl)phenyl)amino)-3-oxopropan-2-yl)-1-ethyl-1H-pyrazole-5-carboxamide]	< 0.1 µM
CCn1nccc1C(=O)N[C@H](C(=O)Nc1ccc([C@H](C)C(=O)N(C)CC(F)(F)F)cc1F)[C@H]1CC[C@H](C)CC1 [Compound 71, -ethyl-N-((S)-2-((2-fluoro-4-((S)-1-(methyl(2,2,2-trifluoroethyl)amino)-1-oxopropan-2-yl)phenyl)amino)-1-((1r,4S)-4-methylcyclohexyl)-2-oxoethyl)-1H-pyrazole-5-carboxamide]	< 0.1 µM
CC[C@@H](c1ccc(Cl)cc1)[C@H](NC(=O)c1ccnn1CC)C(=O)Nc1ccc([C@H](C)C(=O)N(C)CC(F)(F)F)cc1F [Compound 72, N-((2S,3S)-3-(4-chlorophenyl)-1-((2-fluoro-4-((S)-1-(methyl(2,2,2-trifluoroethyl)amino)-1-oxopropan-2-yl)phenyl)amino)-1-oxopentan-2-yl)-1-ethyl-1H-pyrazole-5-carboxamide]	0.1 to 1 µM
CCn1nccc1C(=O)N[C@H](C(=O)Nc1ccc([C@H](C)C(=O)N(C)CC(F)(F)F)cc1F)[C@H](c1ccccc1Cl)C(C)C [Compound 73, N-((2S,3S)-3-(2-chlorophenyl)-1-((2-fluoro-4-((S)-1-(methyl(2,2,2-trifluoroethyl)amino)-1-oxopropan-2-yl)phenyl)amino)-4-methyl-1-oxopentan-2-yl)-1-ethyl-1H-pyrazole-5-carboxamide]	> 1 µM
CCn1nccc1C(=O)N[C@H](C(=O)Nc1ccc([C@H](C)C(=O)N(C)CC(F)(F)F)cc1F)C1CCC(F)(F)CC1 [Compound 74, N-((S)-1-(4,4-difluorocyclohexyl)-2-((2-fluoro-4-((S)-1-(methyl(2,2,2-trifluoroethyl)amino)-1-oxopropan-2-yl)phenyl)amino)-2-oxoethyl)-1-ethyl-1H-pyrazole-5-carboxamide]	0.1 to 1 µM
CCn1nccc1C(=O)N[C@H](C(=O)Nc1ccc([C@H](C)C(=O)N(C)CC(F)(F)F)cc1F)C1CCC2(CC1)CC2 [Compound 75, 1-ethyl-N-((S)-2-((2-fluoro-4-((S)-1-(methyl(2,2,2-trifluoroethyl)amino)-1-oxopropan-2-yl)phenyl)amino)-2-oxo-1-(spiro[2.5]octan-6-yl)ethyl)-1H-pyrazole-5-carboxamide]	0.1 to 1 µM
CC(C)n1nccc1C(=O)N[C@H](C(=O)Nc1ccc([C@H](C)C(=O)N(C)CC(F)(F)F)cc1F)C(C1CC1)C1CC1 [Compound 78, N-((S)-1,1-dicyclopropyl-3-((2-fluoro-4-((S)-1-(methyl(2,2,2-trifluoroethyl)amino)-1-oxopropan-2-yl)phenyl)amino)-3-oxopropan-2-yl)-1-isopropyl-1H-pyrazole-5-carboxamide]	< 0.1 µM
CCn1ncc(F)c1C(=O)N[C@H](C(=O)Nc1ccc([C@H](C)C(=O)N(C)CC(F)(F)F)cc1F)C(C1CC1)C1CC1 [Compound 79, N-((S)-1,1-dicyclopropyl-3-((2-fluoro-4-((S)-1-(methyl(2,2,2-trifluoroethyl)amino)-1-oxopropan-2-yl)phenyl)amino)-3-oxopropan-2-yl)-1-ethyl-4-fluoro-1H-pyrazole-5-carboxamide]	0.1 to 1 µM
CCc1nocc1C(=O)N[C@H](C(=O)Nc1ccc([C@H](C)C(=O)N(C)CC(F)(F)F)cc1F)C(C1CC1)C1CC1 [Compound 80, N-((S)-1,1-dicyclopropyl-3-((2-fluoro-4-((S)-1-(methyl(2,2,2-trifluoroethyl)amino)-1-oxopropan-2-yl)phenyl)amino)-3-oxopropan-2-yl)-3-ethylisoxazole-4-carboxamide]	< 0.1 µM
CC(C)n1nccc1C(=O)N[C@H](C(=O)Nc1ccc([C@H](C)C(=O)NCC(F)(F)F)cc1F)C(C1CC1)C1CC1 [Compound 82, N-((S)-1,1-dicyclopropyl-3-((2-fluoro-4-((S)-1-oxo-1-((2,2,2-trifluoroethyl)amino)propan-2-yl)phenyl)amino)-3-oxopropan-2-yl)-1-isopropyl-1H-pyrazole-5-carboxamide]	< 0.1 µM
CCn1ncc(F)c1C(=O)N[C@H](C(=O)Nc1ccc([C@H](C)C(=O)NCC(F)(F)F)cc1F)C(C1CC1)C1CC1 [Compound 83, N-((S)-1,1-dicyclopropyl-3-((2-fluoro-4-((S)-1-oxo-1-((2,2,2-trifluoroethyl)amino)propan-2-yl)phenyl)amino)-3-oxopropan-2-yl)-1-ethyl-4-fluoro-1H-pyrazole-5-carboxamide]	> 1 µM
CCc1nocc1C(=O)N[C@H](C(=O)Nc1ccc([C@H](C)C(=O)NCC(F)(F)F)cc1F)C(C1CC1)C1CC1 [Compound 84, N-((S)-1,1-dicyclopropyl-3-((2-fluoro-4-((S)-1-oxo-1-((2,2,2-trifluoroethyl)amino)propan-2-yl)phenyl)amino)-3-oxopropan-2-yl)-3-ethylisoxazole-4-carboxamide]	< 0.1 µM
CC[C@@H](c1ccc(F)cc1)[C@H](NC(=O)c1ccnn1CC)C(=O)Nc1ccc([C@H](C)C(=O)N(C)CC(F)(F)F)cc1F [Compound 85, -ethyl-N-((2S,3S)-1-((2-fluoro-4-((S)-1-(methyl(2,2,2-trifluoroethyl)amino)-1-oxopropan-2-yl)phenyl)amino)-3-(4-fluorophenyl)-1-oxopentan-2-yl)-1H-pyrazole-5-carboxamide]	0.1 to 1 µM
CCn1nccc1C(=O)N[C@H](C(=O)Nc1ccc([C@H](C)C(=O)NCC(F)(F)F)cc1F)C(C1CCC1)C1CCC1 [Compound 88, N-((S)-1,1-dicyclobutyl-3-((2-fluoro-4-((S)-1-oxo-1-((2,2,2-trifluoroethyl)amino)propan-2-yl)phenyl)amino)-3-oxopropan-2-yl)-1-ethyl-1H-pyrazole-5-carboxamide]	0.1 to 1 µM
C[C@H](C(=O)NCC(F)(F)F)c1ccc(NC(=O)[C@@H](NC(=O)c2ccnn2CCN2CCOCC2)C(C2CC2)C2CC2)c(F)c1 [Compound 89, N-((S)-1,1-dicyclopropyl-3-((2-fluoro-4-((S)-1-oxo-1-((2,2,2-trifluoroethyl)amino)propan-2-yl)phenyl)amino)-3-oxopropan-2-yl)-1-(2-morpholinoethyl)-1H-pyrazole-5-carboxamide]	0.1 to 1 µM
CCn1nccc1C(=O)N[C@H](C(=O)Nc1ccc([C@H](C)C(=O)N(C)CC(F)(F)F)cc1F)[C@H]1CCc2ccccc21 [Compound 90, N-((S)-1-((S)-2,3-dihydro-1H-inden-1-yl)-2-((2-fluoro-4-((S)-1-(methyl(2,2,2-trifluoroethyl)amino)-1-oxopropan-2-yl)phenyl)amino)-2-oxoethyl)-1-ethyl-1H-pyrazole-5-carboxamide]	0.1 to 1 µM
CCn1nccc1C(=O)N[C@H](C(=O)Nc1ccc([C@H](C)C(=O)N(C)CC(F)(F)F)cc1F)[C@@H]1CCc2ccccc21 [Compound 91, N-((S)-1-((R)-2,3-dihydro-1H-inden-1-yl)-2-((2-fluoro-4-((S)-1-(methyl(2,2,2-trifluoroethyl)amino)-1-oxopropan-2-yl)phenyl)amino)-2-oxoethyl)-1-ethyl-1H-pyrazole-5-carboxamide]	> 1 µM
